Measured values: patent US11780827B2, “Substituted 3-phenoxyazetidin-1-yl-pyrazines” (Boehringer Ingelheim International GmbH, priority 2020, dated 2023)

Molecular target: T1, human GPR52 (Homo sapiens, UniProt Q9Y2T5)
T1 construct: expressed in transfected cells; host or cells: CHO-K1
Test: HTRF assay for direct cAMP measurement
Assay type: cell-based
Details: CHO-K1 cells stably expressing recombinant human GPR52, mean EC50
Description: Homogeneous Time-Resolved Fluorescence (HTRF) Assay for Direct cAMP Measurement.
HTRF cAMP assays were performed using commercially available assay kits according to the manufacturer's instructions (cAMP Dynamic 2 Assay Kit; #62AM4PEJ, Cisbio Bioassays, Bedford, Mass.). An aliquot of CHO-K1 cells stably expressing recombinant human GPR52 is thawed and resuspended in cell buffer (1×PBS (w/o Ca^2+/Mg^2+)) at a density of 4×10^5 cells per mL Test compounds were solubilized in DMSO to 10 mM stock solutions and serially diluted in DMSO using 6-fold dilutions to generate 8-point dose response curves. These serially diluted samples were then diluted 1:50 in compound dilution buffer (1×PBS (w/o Ca^2+/Mg^2+) containing 0.5 mM IBMX, 0.1% BSA) to achieve a 4× stock. The diluted compounds were transferred (5 μL per well) in duplicate to the 384-well assay plate (Optiplate #6007290, PerkinElmer, Waltham, Mass.). Both a positive (reference compound) and negative (non-stimulated vehicle) control are included in each assay run in column 23. The cell suspension was subsequently dispensed into the 384-well assay plates at 15 μL per well (6000 cells) such that the compound was diluted to 1×. […] After a one-hour incubation at room temperature, 10 μL of cAMP D2 reagent followed by 10 μL of cryptate reagent (provided in the Cisbio kit) was added to each well. Plates were then incubated at room temperature for one hour prior to reading. Time-resolved fluorescence measurements were collected on an EnVision® HTRF plate reader (PerkinElmer, Waltham, Mass.). Counts from the plate reader were fit to the cAMP standard curve included on each plate to determine the amount of cAMP in each test well. The % control was calculated based on the positive control set at […]. Dose-response curves were generated from the cAMP data and analyzed using a nonlinear least squares curve-fitting program to obtain EC50 values.

T1 sequence (Q9Y2T5 whole entry): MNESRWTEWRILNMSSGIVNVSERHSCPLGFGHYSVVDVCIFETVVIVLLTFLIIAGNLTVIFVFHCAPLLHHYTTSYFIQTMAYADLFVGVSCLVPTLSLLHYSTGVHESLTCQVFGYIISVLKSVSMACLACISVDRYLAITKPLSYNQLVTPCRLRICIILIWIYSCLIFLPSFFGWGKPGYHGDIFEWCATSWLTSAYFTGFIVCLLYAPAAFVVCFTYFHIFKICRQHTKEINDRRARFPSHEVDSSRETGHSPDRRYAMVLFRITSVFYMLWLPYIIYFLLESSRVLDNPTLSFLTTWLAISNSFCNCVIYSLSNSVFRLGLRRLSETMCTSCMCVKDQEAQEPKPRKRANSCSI

| Structure (SMILES) | EC50 |
| --- | --- |
| O=C(Nc1ccnnc1)c1nccnc1N1CC(Oc2cc(F)cc(C(F)(F)F)c2)C1 [Example 1] | 9 nM |
| O=C(Nc1ccnnc1)c1nccnc1N1CC(Oc2cc(F)cc(Cl)c2)C1 [Example 2] | 9 nM |
| O=C(Nc1ccnnc1)c1nccnc1N1CC(Oc2cc(F)cc(F)c2)C1 [Example 3] | 19 nM |
| O=C(Nc1ccnnc1)c1nccnc1N1CC(Oc2ccc(F)c(F)c2)C1 [Example 5] | 10 nM |
| O=C(Nc1ccnnc1)c1nccnc1N1CC(Oc2cc(F)cc(C(F)F)c2)C1 [Example 6] | 6 nM |
| O=C(Nc1ccnnc1)c1nccnc1N1CC(Oc2ccc(F)c(Cl)c2)C1 [Example 7] | 10 nM |
| O=C(Nc1ccnnc1)c1nccnc1N1CC(Oc2cc(F)c(F)c(Cl)c2)C1 [Example 8] | 4 nM |
| Cc1cc(NC(=O)c2nccnc2N2CC(Oc3ccc(F)c(Cl)c3)C2)cnn1 [Example 16] | 4 nM |
| CCc1cc(NC(=O)c2nccnc2N2CC(Oc3cc(F)cc(C(F)(F)F)c3)C2)cnn1 [Example 17] | 11 nM |
| CCc1cc(NC(=O)c2nccnc2N2CC(Oc3cc(F)cc(Cl)c3)C2)cnn1 [Example 18] | 6 nM |
| CCc1cc(NC(=O)c2nccnc2N2CC(Oc3ccc(F)c(Cl)c3)C2)cnn1 [Example 19] | 4 nM |
| CCc1cc(NC(=O)c2nccnc2N2CC(Oc3cc(F)c(F)c(F)c3)C2)cnn1 [Example 20] | 5 nM |
| CCc1cc(NC(=O)c2nccnc2N2CC(Oc3cc(F)cc(C(F)F)c3)C2)cnn1 [Example 22] | 7 nM |
| CCc1cc(NC(=O)c2nccnc2N2CC(Oc3cc(F)c(F)c(Cl)c3)C2)cnn1 [Example 23] | 6 nM |
| CCc1cc(NC(=O)c2nccnc2N2CC(Oc3cc(F)cc(F)c3)C2)cnn1 [Example 24] | 6 nM |
| Cc1cc(NC(=O)c2nccnc2N2CC(Oc3ccc(F)c(Cl)c3)C2)ncn1 [Example 25] | 4 nM |
| Cc1cc(NC(=O)c2nccnc2N2CC(Oc3cc(F)c(F)c(F)c3)C2)ncn1 [Example 26] | 6 nM |
| Cc1cc(NC(=O)c2nccnc2N2CC(Oc3cc(F)cc(C(F)F)c3)C2)ncn1 [Example 27] | 11 nM |
| Cc1cc(NC(=O)c2nccnc2N2CC(Oc3cc(F)c(F)c(Cl)c3)C2)ncn1 [Example 32] | 8 nM |
| CCc1cc(NC(=O)c2nccnc2N2CC(Oc3ccc(F)c(F)c3)C2)ncn1 [Example 37] | 3 nM |
| O=C(Nc1ccncn1)c1nccnc1N1CC(Oc2cc(F)c(F)c(Cl)c2)C1 [Example 41] | 12 nM |
| O=C(Nc1ccncn1)c1nccnc1N1CC(Oc2cc(F)c(F)c(F)c2)C1 [Example 42] | 23 nM |
| O=C(Nc1ccncn1)c1nccnc1N1CC(Oc2ccc(F)c(F)c2)C1 [Example 43] | 45 nM |

The next lines start with the values.

| EC50 | Structure (SMILES) |
| --- | --- |
| 14 nM | Cc1cc(NC(=O)c2nccnc2N2CC(Oc3cc(F)cc(C(F)(F)F)c3)C2)cnn1 [Example 9] |
| 12 nM | Cc1cc(NC(=O)c2nccnc2N2CC(Oc3cc(F)cc(F)c3)C2)ncn1 [Example 28] |
| 8 nM | Cc1cc(NC(=O)c2nccnc2N2CC(Oc3cc(F)cc(Cl)c3)C2)ncn1 [Example 30] |
| 17 nM | Cc1cc(NC(=O)c2nccnc2N2CC(Oc3cc(F)cc(C(F)(F)F)c3)C2)ncn1 [Example 31] |
| 10 nM | CCc1cc(NC(=O)c2nccnc2N2CC(Oc3cc(F)cc(F)c3)C2)ncn1 [Example 33] |
| 30 nM | CCc1cc(NC(=O)c2nccnc2N2CC(Oc3cc(F)cc(C(F)(F)F)c3)C2)ncn1 [Example 34] |
| 8 nM | CCc1cc(NC(=O)c2nccnc2N2CC(Oc3cc(F)cc(Cl)c3)C2)ncn1 [Example 35] |
| 6 nM | CCc1cc(NC(=O)c2nccnc2N2CC(Oc3cc(F)c(F)c(F)c3)C2)ncn1 [Example 36] |
| 9 nM | CCc1cc(NC(=O)c2nccnc2N2CC(Oc3cc(F)c(F)c(Cl)c3)C2)ncn1 [Example 38] |
| 12 nM | CCc1cc(NC(=O)c2nccnc2N2CC(Oc3cc(F)cc(C(F)F)c3)C2)ncn1 [Example 39] |
| 5 nM | CCc1cc(NC(=O)c2nccnc2N2CC(Oc3ccc(F)c(Cl)c3)C2)ncn1 [Example 40] |
